Reference: patent US7888339B2, “2-methylene-20(21)-dehydro-19-nor-vitamin D analogs” (Wisconsin Alumni Research Foundation, priority 2008, dated 2011)

Tests used:
[1] = molecular target: T1, full-length recombinant rat vitamin D receptor (Rattus norvegicus, UniProt P13053); experiment: Vitamin D receptor competitive binding with [3H]-1,25(OH)2D3; settings: FIG. 1
T1 construct: Full-length recombinant rat receptor was expressed in E. coli; histidine tag (C); made in house; host or cells: E. coli BL21 (DE3) Codon Plus RIL
T1 sequence (P13053 1-423): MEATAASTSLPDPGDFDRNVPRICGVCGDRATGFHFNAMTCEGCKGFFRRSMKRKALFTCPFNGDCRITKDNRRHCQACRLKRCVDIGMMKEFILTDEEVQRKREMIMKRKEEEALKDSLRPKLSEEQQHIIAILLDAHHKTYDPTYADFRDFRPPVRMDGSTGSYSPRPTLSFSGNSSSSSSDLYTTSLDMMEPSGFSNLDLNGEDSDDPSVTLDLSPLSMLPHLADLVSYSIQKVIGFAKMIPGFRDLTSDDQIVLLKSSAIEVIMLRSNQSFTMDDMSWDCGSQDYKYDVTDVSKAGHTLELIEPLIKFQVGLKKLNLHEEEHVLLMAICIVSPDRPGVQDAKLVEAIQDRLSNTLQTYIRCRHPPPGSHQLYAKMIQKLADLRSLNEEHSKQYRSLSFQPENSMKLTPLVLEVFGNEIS
Protocol: Full-length recombinant rat receptor was expressed in E. coli BL21 (DE3) Codon Plus RIL cells and purified to homogeneity using two different column chromatography systems. The first system was a nickel affinity resin that utilizes the C-terminal histidine tag on this protein. The protein that was eluted from this resin was further purified using ion exchange chromatography (S-Sepharose Fast Flow). Aliquots of the purified protein were quick frozen in liquid nitrogen and stored at −80° C. until use. For use in binding assays, the protein was diluted in TEDK50 (50 mM Tris, 1.5 mM EDTA, pH7.4, 5 mM DTT, 150 mM KCl) with 0.1% Chaps detergent. The receptor protein and ligand concentration were optimized such that no more than 20% of the added radiolabeled ligand was bound to the receptor.
Radiolabeled and unlabeled ligands were added to 100 mcl of the diluted protein at a final ethanol concentration of ≦10%, mixed and incubated overnight on ice to reach binding equilibrium. The following day, 100 mcl of hydroxylapatite slurry (50%) was added to each tube and mixed at 10-minute intervals for 30 minutes. The hydroxylapaptite was collected by centrifugation and then washed three times with Tris-EDTA buffer (50 mM Tris, 1.5 mM EDTA, pH 7.4) containing 0.5% Titron X-100. […] Total binding was determined from the tubes containing only radiolabeled ligand.

HL-60 cells = experiment: HL-60 cell differentiation (nitro blue tetrazolium reduction); format: cell-based, human; settings: for EC50: HL-60 cells into monocytes, FIG. 2
Protocol: The study drugs were dissolved in ethanol and the concentrations determined using UV spectrophotometry. Serial dilutions were prepared so that a range of drug concentrations could be tested without changing the final concentration of ethanol (≦0.2%) present in the cell cultures.
Human promyelocytic leukemia (HL60) cells were grown in RPMI-1640 medium containing 10% fetal bovine serum. The cells were incubated at 37° C. in the presence of 5% CO2.
HL60 cells were plated at 1.2×10^5 cells/ml. Eighteen hours after plating, cells in duplicate were treated with drug. Four days later, the cells were harvested and a nitro blue tetrazolium reduction assay was performed (Collins et al., 1979; J. Exp. Med. 149:969-974). The percentage of differentiated cells was determined by counting a total of 200 cells and recording the number that contained intracellular black-blue formazan deposits. Verification of differentiation to monocytic cells was determined by measuring phagocytic activity (data not shown).

[2] = test system: 24-hydroxylase (24Ohase) gene promoter in ROS 17/2.8 (bone) cells; experiment: In vitro transcription assay (24-hydroxylase gene promoter, luciferase reporter); format: cell-based; settings: ROS 17/2.8 cells, 24-hydroxylase promoter-luciferase; FIG. 3; read-out: EC50, transcriptional activity in bone cells
Protocol: Transcription activity was measured in ROS 17/2.8 (bone) cells that were stably transfected with a 24-hydroxylase (24Ohase) gene promoter upstream of a luciferase reporter gene (Arbour et al., 1998). Cells were given a range of doses. Sixteen hours after dosing the cells were harvested and luciferase activities were measured using a luminometer.
RLU=relative luciferase units.

[3] = test system: bone calcium mobilization; experiment: Bone calcium mobilization (serum calcium) in vitamin D-deficient rats; format: in vivo, rat; settings: FIG. 4; for mobilization of bone calcium (serum calcium): ip, 4 consecutive days, rats on 0.02% Ca diet
Protocol: (§1) Male, weanling Sprague-Dawley rats were placed on Diet 11 (0.47% Ca) diet+AEK oil for one week followed by Diet 11 (0.02% Ca)+AEK oil for 3 weeks. The rats were then switched to a diet containing 0.47% Ca for one week followed by two weeks on a diet containing 0.02% Ca. Dose administration began during the last week on 0.02% calcium diet. Four consecutive ip doses were given approximately 24 hours apart. Twenty-four hours after the last dose, blood was collected from the severed neck and the concentration of serum calcium determined as a measure of bone calcium mobilization. The first 10 cm of the intestine was also collected for intestinal calcium transport analysis using the everted gut sac method.

[4] = test system: intestinal calcium transport; experiment: Intestinal calcium transport (everted gut sac method) in vitamin D-deficient rats; format: in vivo, rat; settings: FIG. 5; for intestinal calcium transport: 260 pmol/day, ip, 4 consecutive days, everted gut sac
Protocol: as §1

| Ki ([1]; full-length recombinant rat VDR, read-out: Ki, competition with [3H]-1,25(OH)2D3 for binding to the vitamin D receptor) [nM] | VDR binding affinity compared to 1,25(OH)2D3 ([1]; in words) | EC50 (HL-60 cells; Homo sapiens) [nM] | Structure (SMILES) | potency on HL-60 cell differentiation relative to 1,25(OH)2D3 (HL-60 cells; compared to 1,25(OH)2D3) [times] | EC50 [2] [nM] | mobilization of bone calcium (serum calcium) ([3]; 260 pmol/day) | mobilization of bone calcium (serum calcium) ([3]; 2340 pmol/day) | bone calcium mobilization activity compared to 1,25(OH)2D3 ([3]; in words) | intestinal calcium transport [4] | intestinal calcium transport activity compared to 1,25(OH)2D3 ([4]; in words) | EC50 (HL-60 cells) [nM] |
| --- | --- | --- | --- | --- | --- | --- | --- | --- | --- | --- | --- |
| 0.1 | same affinity | 0.7 | C=C1[C@H](O)CC(=C/C=C2\CCC[C@]3(C)[C@@H](C(=C)CCCC(C)(C)O)CC[C@@H]23)C[C@H]1O [Vit III 20-21, 2-methylene-20(21)-dehydro-19-nor-1α,25-dihydroxyvitamin D3] | 3 to 4 | 2 | did not result in mobilization of bone calcium | substantial effect | less bone calcium mobilization activity | promotes intestinal calcium transport | about the same activity |  |
|  |  |  | C=C1/C(=C\C=C2/CCC[C@]3(C)[C@@H]([C@H](C)CCCC(C)(C)O)CC[C@@H]23)C[C@@H](O)C[C@@H]1O [1,25(OH)2D3, 1α,25-dihydroxyvitamin D3, reference compound] |  | 0.3 | increased serum calcium levels |  |  | significant increase |  | 2 |
